What was measured:
[1] = tested on: human primary monocyte derived M2-macrophages; assay: Cytokine induction in human primary monocyte derived M2-macrophages; format: cell-based; conditions: 48 hours; for induction of interleukin-6 (IL-6): compared to parent compound TLR7-1, FIG. 3A; for induction of C-X-C motif chemokine ligand 10 (CXCL-10): compared to parent compound TLR7-1, FIG. 3B; for polarization of M2 macrophages to M1 macrophages: shown by increased M1 markers IL-6 and CXCL10
[2] = tested on: human peripheral blood mononuclear cells (PBMCs); assay: IL-6 production in human PBMCs treated with TLR7 agonists (ELISA); format: cell-based; conditions: 24 hours, compared to control Compound A (TLR7-1), FIG. 2
Method: To evaluate the efficacy of TLR-7 agonists, Compounds 1 (TLR7-1A), 2 (TLR7-1B) and 3 (TLR7-1C) were treated with human peripheral blood mononuclear cells (PBMCs) for 24 hours and cytokine production was thereafter assessed. Human PBMCs were isolated from healthy donors by density gradient centrifugation following standard procedure. 18 mL of blood were diluted with 2% fetal bovine serum (FBS) in phosphate-buffered saline (PBS) (1:1 dilution) and transferred slowly into a 50 mL SepMate™ PBMC isolation tube containing 12 mL of Ficoll-Paque®. The tube was centrifuged at 1200 g for 10 minutes and PBMCs were transferred into a fresh 50 mL tube.
PBMCs were washed with 2×50 mL of 2% FBS in PBS and plated in 96 well plate at a density of 2×10^5 cells/200 μL RPMI medium. This was treated with different concentrations of TLR7 agonist for 24 hours.
Compound A (TLR7-1) was used as control. Cell culture supernatants were isolated and cytokine levels were calculated using an enzyme-linked immunosorbent assay (ELISA) kit (FIG. 2).

[3] = tested on: mouse bone marrow-derived M2-macrophages; assay: Macrophage polarization in mouse bone marrow-derived M2 macrophages (ELISA); format: cell-based; conditions: 48 hours
Method: Bone marrow cells were isolated from tibias and femurs of male C57BL/6 mice and were differentiated to macrophages with mouse M-CSF (20 ng/mL). The macrophages were then polarized to M2 phenotype with 20 ng/mL of […] for 48 hours. Interferon-γ (IFN-γ), interleukin-4 (IL-4), and interleukin-13 (IL-13) were obtained from Biolgend (San Diego, Calif.). Lipopolysaccharide (LPS) was purchased from Sigma-Aldrich (St. Louis, Mo.).
The resulting M2 macrophages were then incubated with varying concentrations of Resiquimod, GSK2245035, Compound 1, Compound 2, and Compound 3 for 48 hours. Supernatant was harvested and cytokines were analyzed using ELISA. (Resiquimod and GSK2245035 are known TLR7 agonists.)

[4] = Systemic cytokine release in healthy mice after tail vein injection; format: in vivo; conditions: healthy Balb/c mice, 10 nmol tail vein, 1 hour or 1.5 hours after treatment
Text: Female Balb/c mice were purchased from Charles Rivers, housed in a sterile environment on a standard 12-hour light-dark cycle, and maintained on a folate-deficient diet. All animal procedures were approved by the Purdue Animal Care and Use Committee in accordance with National Institutes of Health guidelines.
Healthy mice were tail vein injected with 10 nmol Compound A (TLR7-1) or Compound 1 (TLR7-1A), and peripheral blood was collected at indicated time points after drug injection. (FIGS. 3C and 3D). The effect of drug on plasma levels of IL-6 (FIG. 3C), and tumor necrosis factor alpha (TNF-α) (FIG. 3D) was determined at 1 hour or 1.5 hours after treatment. Both Compounds A and 1 stimulated systemic cytokine release in healthy mice.

[5] = tested on: human PBMC-derived M2 macrophages; assay: Surface markers during macrophage polarization (flow cytometry); format: cell-based; conditions: 48 hours
Method: Human PMBC-derived M2 macrophages were treated with different concentrations of folate-TLR7 agonists (e.g., Compound 4) for 48 hours, and macrophage cells were detached using Accutase cell detachment Solution (Biolegend, San Diego, Calif.; #423201) and gently lifted with a cell scraper. Cells were washed with PBS and nonspecific binding was blocked by incubation with Fc receptor blocking solution (Biolegend, San Diego, Calif.) at room temperature for 10 minutes. The resulting single cell suspensions were stained for M2 macrophage marker CD206, and M1 macrophage markers CD80 and CD40. All the samples were then analyzed by flow cytometry.

4T1 metastatic tumor = 4T1 metastatic tumor model, lung metastatic colony formation (6-thioguanine assay); format: in vivo; conditions: Balb/c mice, 50 nmole/kg intravenously once/week
Method: Additional 4T1 solid tumor metastatic studies were also performed. There, lung metastatic colony formation assay was carried out following the reported procedure (Cresswell et al., Folate receptor beta designates immunosuppressive tumor-associated myeloid cells that can be reprogrammed with folate-targeted drugs, Cancer Research 2021, 81(3), 671-684). 6-8 weeks old Balb/c mice were implanted with 50,000 4T1 cells in the mammary fat pad and tumors were allowed to grow until they reached ˜50 mm^3. Mice were then injected intravenously with 100 μl of Folate-TLR7 conjugate (Compound 4) (50 nmole/kg) once/week. The control group received an equal volume of PBS on the same schedule. At the end of the treatment, metastasis in lung was evaluated in disease control and treatment group by co-culturing lung-digested cells with 6-thioguanine ([…]) in complete RPMI-1640 media for 10 days in petri plates. Metastatic colonies were visualized by fixing the plates with 5 mL of methanol followed by 5 mL deionized water wash and then stained with 0.03% methylene blue (see FIG. 15C). Total blue colonies from each plate were then counted.

4T1 solid tumor = 4T1 solid tumor model in mice; format: in vivo; conditions: BalB/c mice; for polarization of the macrophages from M2 to M1 phenotype in tumor: 4T1 solid tumors, flow cytometry; for tumor size: subcutaneous 4T1, intravenous, Compound 5 10 nmol/mouse, Compound 4 different concentrations
Method: In additional in vivo studies, 6-8 week old female BalB/c mice (Charles River Laboratories International, Inc., Wilmington, Mass.) were transferred upon arrival to a folic acid-deficient diet (TD.95247, Envigo Corporation, Indianapolis, Ind.). On day 14, mice were implanted subcutaneously with 5.0×10^4 of 4T1 cells and tumors were allowed to grow until they reach ˜50 mm^3. Mice were then injected intravenously with different concentrations of 100 μl of Folate-TLR7 conjugate Compounds 4 or 10 nmol/mouse of Compound 5). Control groups received 100 μl of 3% DMSO in PBS on the same schedule.
Tumor volume was concurrently measured with calipers using the formula (a×b^2)/2 (a being the largest and b being the smallest diameter of the tumor) (see FIGS. 10A, 10B, and 14). When desired, mice were sacrificed, and derived tumor fragments were dissociated using a human tumor dissociation kit. The resulting single cell suspensions were stained for antibodies and the samples were then analyzed by flow cytometry. Percentage of CD4 and CD8 T cell populations were tested in live cells isolated from 4T1 solid tumors in groups of untreated control and Folate-TLR7 conjugate treatment groups.

[6] = tested on: human PBMC-derived M2 macrophages; assay: Reprogramming of human PBMC-derived M2 macrophages by folate-TLR7 conjugates (qPCR, ELISA); format: cell-based; conditions: increased M1 markers
Method: To evaluate the efficacy of the releasable and non-releasable conjugates, freshly isolated PBMCs were plated with monocyte attachment medium at a seeding density of 1 million cells/cm^2. This was incubated for about 2 hours at 5% CO2 and 37° C. in the incubator. Non-adherent cells were removed, and the monocytes were washed three times with warm monocyte attachment medium. The monocytes were cultured in folate deficient RPMI 1640 medium. This was differentiated into unpolarized macrophages by incubating with fresh RPMI medium containing 20 ng/mL of M-CSF supplemented with 1% penicillin streptomycin (Invitrogen, Carlsbad, Calif.) and 10% FBS.
After 3 days, the medium was replaced with fresh RPMI medium containing 20 ng/mL of M-CSF. […]
qPCR analyses were performed using the iTaq™ Universal SYBR Green SuperMix (Bio-Rad Laboratories, Inc., Hercules, Calif.; #1725121), iCycler thermocycler, and iCycler iQ 3.0 software (Bio-Rad Laboratories Inc., Hercules, Calif.) to track the expression of markers characteristic of macrophage polarization states. […] Each sample was analyzed independently in triplicate for each marker. IL-6, CXCL-10 and TNF-α protein expression in the cell culture supernatants were calculated using the commercially available ELISA kits (Biolegend, San Diego, Calif.).

| SMILES | induction of interleukin-6 (IL-6) [1] | induction of C-X-C motif chemokine ligand 10 (CXCL-10) [1] | polarization of M2 macrophages to M1 macrophages [1] | expression of IL-6 in PBMCs [2] | polarization of the macrophages from M2 to M1 phenotype in tumor (4T1 solid tumor) | tumor size (4T1 solid tumor) | further results |
| --- | --- | --- | --- | --- | --- | --- | --- |
| CCCCc1nc2c(N)nc3ccccc3c2n1CC(C)(C)CO [Compound 1, 3-(4-amino-2-butyl-1H-imidazo[4,5-c]quinolin-1-yl)-2,2-dimethylpropan-1-ol] | more efficiently | more efficiently | polarize the M2 macrophages to M1 macrophages | increased | – | – | M1 marker IL-6 ([3]; supernatant ELISA, FIG. 4A): increase; M1 marker TNF-α ([3]; supernatant ELISA, FIG. 4B): increase; polarization of macrophages from M2 to M1 phenotype ([3]; varying concentrations, FIGS. 4A and 4B): efficiently polarized; systemic cytokine release (plasma IL-6, TNF-α) [4]: stimulated |
| CCCCc1nc2c(N)nc3ccccc3c2n1CC(C)(C)CN [Compound 2, 1-(3-amino-2,2-dimethylpropyl)-2-butyl-1H-imidazo[4,5-c]quinolin-4-amine] | more efficiently | more efficiently | polarize the M2 macrophages to M1 macrophages | increased | – | – | – |
| CCCCc1nc2c(N)nc3ccccc3c2n1CC(C)(C)N [Compound 3, 1-(2-amino-2-methylpropyl)-2-butyl-1H-imidazo[4,5-c]quinolin-4-amine] | more efficiently | more efficiently | polarize the M2 macrophages to M1 macrophages | increased | – | – | – |
| CCCCc1nc2c(N)nc3ccccc3c2n1CC(C)(C)COCCOCCOCCOCCNC(=O)CC[C@H](NC(=O)c1ccc(NCc2cnc3nc(N)[nH]c(=O)c3n2)cc1)C(=O)O [Compound 4, (S)-1-(4-amino-2-butyl-1H-imidazo[4,5-c]quinolin-1-yl)-20-(4-(((2-amino-4-oxo-3,4-dihydropteridin-6-yl)methyl)amino)benzamido)-2,2-dimethyl-17-oxo-4,7,10,13-tetraoxa-16-azahenicosan-21-oic acid] | – | – | – | – | shifted polarization of the macrophages from M2 to M1 phenotype | reduction | M1 surface marker CD40 ([5]; FIG. 12A): increased; M1 surface marker CD80 ([5]; FIG. 12B): increased; polarization of M2 macrophages to M1 macrophages ([5]; FIGS. 12A and 12B): polarized the M2 macrophages to M1 macrophages; number of metastatic colonies (lung) (4T1 metastatic tumor; 6-thioguanine assay, FIG. 15B-C): significantly decreased; volume of the tumor (4T1 metastatic tumor; 4T1 in mammary fat pad, FIG. 15A): significantly decreased; polarization of M2 macrophages to M1 macrophages ([6]; 3 hours or 3+45 hours, FIGS. 11A-11D): polarized the M2 macrophages to M1 macrophages |
| CCCCc1nc2c(N)nc3ccccc3c2n1CC(C)(C)COC(=O)OCCSSC[C@H](NC(=O)CCOCCOCCOCCNC(=O)CC[C@H](NC(=O)c1ccc(NCc2cnc3nc(N)[nH]c(=O)c3n2)cc1)C(=O)O)C(=O)O [Compound 5] | – | – | – | – | shifted polarization of the macrophages from M2 to M1 phenotype | reduction | polarization of M2 macrophages to M1 macrophages ([6]; 3+45 hours, FIG. 9): polarized the M2 macrophages to M1 macrophages |
